{"source": "patent US20260176300A1", "about": "“N-ARYLPYRAZOLE NOD2 AGONISTS AS PROMOTERS OF IMMUNE CHECKPOINT INHIBITOR THERAPY” (THE SCRIPPS RESEARCH INSTITUTE, priority 2022, published 2026)", "key": {"[1]": {"target": "T1, NOD1 (Homo sapiens, UniProt Q9Y239)", "T1 construct": "host or cells: HEK-293T-derived HEK-Blue NF-kB/SEAP reporter cells", "T1 sequence (Q9Y239 1-953)": "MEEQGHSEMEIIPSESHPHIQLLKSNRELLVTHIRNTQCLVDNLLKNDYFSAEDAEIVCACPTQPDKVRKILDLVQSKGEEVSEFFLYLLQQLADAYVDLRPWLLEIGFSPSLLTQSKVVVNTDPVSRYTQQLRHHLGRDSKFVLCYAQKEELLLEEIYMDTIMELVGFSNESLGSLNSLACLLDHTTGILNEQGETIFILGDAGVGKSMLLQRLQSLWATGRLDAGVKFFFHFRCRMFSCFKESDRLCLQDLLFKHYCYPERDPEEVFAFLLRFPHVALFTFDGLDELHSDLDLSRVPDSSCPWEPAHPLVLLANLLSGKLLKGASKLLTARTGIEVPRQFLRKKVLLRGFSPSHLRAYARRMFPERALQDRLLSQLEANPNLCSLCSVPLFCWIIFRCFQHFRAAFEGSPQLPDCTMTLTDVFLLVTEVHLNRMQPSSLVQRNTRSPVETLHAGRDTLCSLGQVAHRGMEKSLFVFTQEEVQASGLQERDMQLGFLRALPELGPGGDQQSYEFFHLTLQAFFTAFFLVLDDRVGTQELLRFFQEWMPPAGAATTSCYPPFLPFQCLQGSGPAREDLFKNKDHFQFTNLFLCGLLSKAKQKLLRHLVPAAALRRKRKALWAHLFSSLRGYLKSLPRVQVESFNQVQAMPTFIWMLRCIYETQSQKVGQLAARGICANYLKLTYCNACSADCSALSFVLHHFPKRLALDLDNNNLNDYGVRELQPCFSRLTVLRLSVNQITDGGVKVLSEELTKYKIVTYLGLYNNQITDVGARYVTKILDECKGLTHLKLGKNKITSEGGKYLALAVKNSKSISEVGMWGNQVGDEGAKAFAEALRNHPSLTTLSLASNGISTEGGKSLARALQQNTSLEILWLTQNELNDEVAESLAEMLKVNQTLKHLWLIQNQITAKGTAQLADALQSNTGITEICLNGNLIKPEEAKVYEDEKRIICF", "conditions": "relative to iE-DAP; cited from earlier work"}, "[2]": {"target": "T2, NOD2 (Homo sapiens, UniProt Q9HC29)", "T2 construct": "host or cells: HEK-293T-derived HEK-Blue NF-kB/SEAP reporter cells", "T2 sequence (Q9HC29 whole entry)": "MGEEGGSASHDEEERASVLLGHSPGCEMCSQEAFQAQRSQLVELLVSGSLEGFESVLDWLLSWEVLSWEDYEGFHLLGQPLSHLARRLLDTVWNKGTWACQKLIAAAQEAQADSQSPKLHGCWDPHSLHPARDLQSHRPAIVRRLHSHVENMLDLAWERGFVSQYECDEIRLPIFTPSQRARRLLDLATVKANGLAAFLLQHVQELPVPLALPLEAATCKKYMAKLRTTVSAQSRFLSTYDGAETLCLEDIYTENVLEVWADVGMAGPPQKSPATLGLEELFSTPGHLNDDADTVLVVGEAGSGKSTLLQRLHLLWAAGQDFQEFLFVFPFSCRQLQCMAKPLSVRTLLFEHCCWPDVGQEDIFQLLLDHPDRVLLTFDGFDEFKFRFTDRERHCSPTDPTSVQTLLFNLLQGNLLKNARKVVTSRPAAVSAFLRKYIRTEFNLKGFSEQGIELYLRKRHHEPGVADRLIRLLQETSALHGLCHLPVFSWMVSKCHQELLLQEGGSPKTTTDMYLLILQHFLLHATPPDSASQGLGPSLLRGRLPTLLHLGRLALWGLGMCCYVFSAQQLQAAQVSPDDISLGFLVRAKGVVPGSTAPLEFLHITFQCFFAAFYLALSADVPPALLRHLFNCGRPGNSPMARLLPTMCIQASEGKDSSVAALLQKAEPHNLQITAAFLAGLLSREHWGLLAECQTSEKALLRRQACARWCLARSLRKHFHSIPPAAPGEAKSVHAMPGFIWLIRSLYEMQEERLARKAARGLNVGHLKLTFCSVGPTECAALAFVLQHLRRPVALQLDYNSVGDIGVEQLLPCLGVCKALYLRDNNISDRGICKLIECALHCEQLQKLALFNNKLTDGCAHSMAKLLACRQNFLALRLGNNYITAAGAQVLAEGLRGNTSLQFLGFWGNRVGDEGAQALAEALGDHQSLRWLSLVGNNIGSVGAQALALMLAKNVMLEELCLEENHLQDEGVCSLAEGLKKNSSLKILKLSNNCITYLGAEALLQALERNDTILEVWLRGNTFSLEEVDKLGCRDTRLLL", "test": "NOD2-HEK-Blue NF-κB reporter cell activation assay (NOD2-expressing HEK-293T cells)", "format": "cell-based", "source_text": "FIG. 1(A-F). Virtual screening for small molecule NOD2 agonists. A, Docked structure of muramyl dipeptide (MDP) in the leucine-rich repeat (LRR) domain of rabbit NOD2 (pdb 5IRM). […] B, Results of virtual docking approach with reported chemical structures related to MDP. C, Workflow of virtual screening in which a library was generated using carboxylic acids appended to the L-Val-D-Glu dipeptide and then docked to the NOD2 LRR domain. D, Desmuramyl MDP (dMDP) structures resulting from the virtual screen that were synthesized for further screening. Chemicals shown as a pure enantiomer were synthesized as a racemic mixture. E, Activation of NOD2-expressing HEK-293T cells treated for 16 h with 10 µM of the indicated compound using a colorimetric assay. F, Dose-dependent activation of NOD2-expressing HEK-293T cells using the indicated compounds. Numbers in parentheses represent calculated negative log of the half maximal effective concentration (pEC50) values. NOD activation assays were analyzed using a one-way ANOVA with Dunnett's multiple comparisons test compared to the DMSO control. pEC50 values were derived by a three-parameter dose-response nonlinear regression. ****P<0.0001.\nFIG. 2(A-G). Structure-activity relationship studies of 3,5-dimethyl-N-arylpyrazole NOD2 agonists. A, Structures of 3,5-dimethyl-N-arylpyrazole structures synthesized for SAR studies. B-F, Dose-dependent activation of NOD2-expressing HEK-293T cells using the indicated compounds grouped by similar structural perturbations. Numbers in parentheses represent calculated pEC50 values. G, Graph of calculated pEC50 values vs. calculated partition coefficient (clogP). Dotted lines show equivalent lipophilic ligand efficiency (LLE) values. Red arrow indicates optimization of the TT007 scaffold to TT030. pEC50 values were derived by a three-parameter dose-response nonlinear regression.\n(§1) Cell culture. The following cell lines were used and sourced as follows: HEK-Blue NOD2 (InvivoGen, hkb-hnod2), HEK-Blue NOD1 (InvivoGen, hkb-nod1), HEK-Blue Null2 (hkb-null2), and B16-F10 (ATCC CRL-6475). All cell lines were cultured at 37° C. in 5% CO2 in DMEM (ThermoFisher, 11995065) supplemented with 10% fetal bovine serum (FBS), 100 U mL-1 penicillin, and 100 μg mL-1 streptomycin. Cells were maintained at no greater than 70% confluency and subcultured using TrypLE Express. Cell lines were routinely cultured without antibiotics to ensure no bacterial infection and tested for mycoplasma using a Universal Mycoplasma Detection Kit (ATCC 30-1012K). Primary human peripheral mononuclear blood cells (PBMCs) were cultured at 37° C. in 5% CO2 in RPMI 1640 (ThermoFisher, 61870143) supplemented with 10% FBS. All experimental work using human samples was reviewed and approved by the Scripps Research Institutional Review Board (Protocol IRB-21-7816NOD2).\nReporter cell line activation assay. Approximately 24 h before the assay, culture medium for each of the HEK-Blue reporter cell lines was replaced with a 1:1 mixture of DMEM supplemented with 10% FBS and OptiMEM. On the day of the assay, single cell suspensions (150,000 cells/mL) were produced in HEK-Blue detection medium (InvivoGen, hb-det2). Cells were aliquoted at 200 μL per well of a 96-well plate containing 0.2 μL of a 1000× stock of each test compound in DMSO. Cells were then incubated at 37° C. in 5% CO2 for 8-10 h. To measure activity, wells were then gently pipetted up and down to mix the conditioned medium, and absorbance from the colorimetric product of the secreted alkaline phosphatase was measured at 630 nm. In some assays, cells were stimulated for 16 h with compounds as described above in complete DMEM. Then, 20 μL of the conditioned medium was mixed with 180 μL QUANTI-Blue solution (InvivoGen, rep-qbs) and incubated for 2-4 h at 37° C. Activity was then measured by absorbance as described above."}, "[3]": {"target": "T1, NOD1", "test": "NOD1 HEK-Blue NF-κB reporter cell activation assay (NOD1-expressing HEK-293T cells)", "format": "cell-based", "conditions": "10 μM, 16 h (FIG. 5)", "method": "(§2) FIG. 5(A-B). Lead 3,5-dimethyl-N-arylpyrazole TT007 specifically activates NOD2. A-B, Activation of Null (control) and NOD1-expressing HEK-293T cells treated for 16 h with 10 μM of the indicated compound using a colorimetric assay. ****P<0.0001.\nas §1, with “All experimental work using human samples was reviewed and approved by the Scripps Research Institutional Review Board (Protocol IRB-21-7816NOD2).” left out\n(§3) Reporter cell line activation assay. […] To measure activity, wells were then gently pipetted up and down to mix the conditioned medium, and absorbance from the colorimetric product of the secreted alkaline phosphatase was measured at 630 nm. […] Activity was then measured by absorbance as described above."}, "[4]": {"tested_on": "HEK-Blue Null2", "test": "NULL HEK-Blue NF-κB reporter cell activation assay (control)", "format": "cell-based", "conditions": "10 μM, 16 h (FIG. 5)", "method": "as §2\nas §1, with “All experimental work using human samples was reviewed and approved by the Scripps Research Institutional Review Board (Protocol IRB-21-7816NOD2).” left out\nas §3"}}, "note": "Read-outs that look alike come from different tables or passages of the source."}
{"smiles": "CCCCCCCCCCCC(=O)N[C@H](CCC(=O)NC(CCCC(N)C(=O)O)C(=O)O)C(=O)O", "note": "(stereo partly drawn) [C12-iE-DAP]", "values": [{"measurement": "Greater activation of NOD1-dependent NF-κB reporter", "setting": "[1]", "result": "~100", "unit": "fold"}]}
{"smiles": "CCOC(=O)CC[C@@H](NC(=O)[C@@H](NC(=O)c1c(C)nn(-c2ccc(F)cc2)c1C)C(C)C)C(=O)OCC", "note": "[TT007, Diethyl (1-(4-fluorophenyl)-3,5-dimethyl-1H-pyrazole-4-carbonyl)-L-valyl-D-glutamate]", "values": [{"measurement": "Activation of NOD2-expressing HEK-293T cells, colorimetric assay", "setting": "[2]; 10 µM, 16 h (FIG. 1E)", "result": "active"}, {"measurement": "EC50", "setting": "[2]; FIG. 1F, read-out: pEC50, dose-dependent NOD2 activation (converted)", "result": "~1", "unit": "µM"}, {"measurement": "EC50", "setting": "[2]; calculated, three-parameter dose-response nonlinear regression, read-out: pEC50 (μM), dose-dependent activation of NOD2-expressing HEK-293T cells (converted)", "result": 1, "unit": "µM"}, {"measurement": "Activation of NOD1 HEK-Blue NF-κB reporter cells", "setting": "[3]", "result": "inactive"}, {"measurement": "Activation of NULL HEK-Blue NF-κB reporter cells", "setting": "[4]", "result": "inactive"}]}
